# Data as given in article PMC10838953.
# Values joined by “and” are separate entries in the source; they are usually repeats but may differ in a detail not shown here. Identical values can stand only once.
# Columns and labels:
# [1] = test system: AKT (S129) in 786-O cells
# [2] = molecular target: ABL1(F317L)-nonphosphorylated (Homo sapiens, UniProt P00519, F317L); experiment: biochemical; conditions: read-out: %Ctrl @ 2000nM
# [3] = molecular target: ABL1(Q252H)-phosphorylated (Homo sapiens, UniProt P00519, Q252H); experiment: biochemical; conditions: read-out: %Ctrl @ 2000nM
# ACVR1B = ACVR1B (Homo sapiens, UniProt P36896); experiment: biochemical; conditions: read-out: %Ctrl @ 2000nM
# ALK(L1196M) = ALK(L1196M) (Homo sapiens, UniProt Q9UM73, L1196M); experiment: biochemical; conditions: read-out: %Ctrl @ 2000nM
# ASK2 = ASK2 (Homo sapiens, UniProt O95382); experiment: biochemical; conditions: read-out: %Ctrl @ 2000nM
# BMPR1A = BMPR1A (Homo sapiens, UniProt P36894); experiment: biochemical; conditions: read-out: %Ctrl @ 2000nM
# CDK8 = CDK8 (Homo sapiens, UniProt P49336); experiment: biochemical; conditions: read-out: %Ctrl @ 2000nM
# Sequence of CDK8 (P49336 whole entry): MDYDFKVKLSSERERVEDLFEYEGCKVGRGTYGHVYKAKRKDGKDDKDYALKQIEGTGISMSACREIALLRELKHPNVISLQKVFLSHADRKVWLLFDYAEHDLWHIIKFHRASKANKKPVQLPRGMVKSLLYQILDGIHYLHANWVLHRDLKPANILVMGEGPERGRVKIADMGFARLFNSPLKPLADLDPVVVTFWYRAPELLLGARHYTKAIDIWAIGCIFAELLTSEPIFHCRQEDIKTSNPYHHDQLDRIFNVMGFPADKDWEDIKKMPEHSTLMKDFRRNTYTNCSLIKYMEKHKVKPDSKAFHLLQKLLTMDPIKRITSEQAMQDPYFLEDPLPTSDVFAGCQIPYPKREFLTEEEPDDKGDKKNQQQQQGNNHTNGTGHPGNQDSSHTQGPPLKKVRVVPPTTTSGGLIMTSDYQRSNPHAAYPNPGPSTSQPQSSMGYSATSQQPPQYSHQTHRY
# CDK9 = CDK9 (Homo sapiens, UniProt P50750); experiment: biochemical; conditions: read-out: %Ctrl @ 2000nM
# Sequence of CDK9 (P50750 whole entry): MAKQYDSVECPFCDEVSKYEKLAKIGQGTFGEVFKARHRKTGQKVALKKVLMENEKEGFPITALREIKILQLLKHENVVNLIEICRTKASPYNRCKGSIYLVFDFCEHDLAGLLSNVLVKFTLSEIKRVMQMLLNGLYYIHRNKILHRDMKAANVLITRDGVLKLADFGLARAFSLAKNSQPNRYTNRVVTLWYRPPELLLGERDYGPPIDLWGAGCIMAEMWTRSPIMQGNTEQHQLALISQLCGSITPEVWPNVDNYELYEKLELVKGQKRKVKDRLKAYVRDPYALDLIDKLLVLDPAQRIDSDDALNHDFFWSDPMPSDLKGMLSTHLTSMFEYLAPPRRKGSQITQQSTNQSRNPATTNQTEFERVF
# CIT = CIT (Homo sapiens, UniProt O14578); experiment: biochemical; conditions: read-out: %Ctrl @ 2000nM
# CLK3 = CLK3 (Homo sapiens, UniProt P49761); experiment: biochemical; conditions: read-out: %Ctrl @ 2000nM
# CSNK1G3 = CSNK1G3 (Homo sapiens, UniProt Q9Y6M4); experiment: biochemical; conditions: read-out: %Ctrl @ 2000nM
# Sequence of CSNK1G3 (Q9Y6M4 whole entry): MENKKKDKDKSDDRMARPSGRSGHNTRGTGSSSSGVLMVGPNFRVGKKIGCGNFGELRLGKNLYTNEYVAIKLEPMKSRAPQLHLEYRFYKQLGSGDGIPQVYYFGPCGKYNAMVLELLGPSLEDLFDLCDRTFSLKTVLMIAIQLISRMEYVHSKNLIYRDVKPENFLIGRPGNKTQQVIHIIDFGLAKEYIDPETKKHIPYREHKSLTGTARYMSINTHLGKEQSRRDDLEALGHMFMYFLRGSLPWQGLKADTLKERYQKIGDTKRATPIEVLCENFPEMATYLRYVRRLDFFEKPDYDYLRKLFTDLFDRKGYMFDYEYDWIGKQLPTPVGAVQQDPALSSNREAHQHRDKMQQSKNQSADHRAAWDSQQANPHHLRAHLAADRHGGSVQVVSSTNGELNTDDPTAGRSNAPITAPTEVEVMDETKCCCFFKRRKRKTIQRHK
# DCAMKL1 = DCAMKL1 (Homo sapiens, UniProt O15075); experiment: biochemical; conditions: read-out: %Ctrl @ 2000nM
# EGFR(L861Q) = EGFR(L861Q) (Homo sapiens, UniProt P00533, L861Q); experiment: biochemical; conditions: read-out: %Ctrl @ 2000nM
# EPHA2 = EPHA2 (Homo sapiens, UniProt P29317); experiment: biochemical; conditions: read-out: %Ctrl @ 2000nM
# EPHA3 = EPHA3 (Homo sapiens, UniProt P29320); experiment: biochemical; conditions: read-out: %Ctrl @ 2000nM
# FAK = FAK (Homo sapiens, UniProt Q05397); experiment: biochemical; conditions: read-out: %Ctrl @ 2000nM
# FRK = FRK (Homo sapiens, UniProt P42685); experiment: biochemical; conditions: read-out: %Ctrl @ 2000nM
# Sequence of FRK (P42685 whole entry): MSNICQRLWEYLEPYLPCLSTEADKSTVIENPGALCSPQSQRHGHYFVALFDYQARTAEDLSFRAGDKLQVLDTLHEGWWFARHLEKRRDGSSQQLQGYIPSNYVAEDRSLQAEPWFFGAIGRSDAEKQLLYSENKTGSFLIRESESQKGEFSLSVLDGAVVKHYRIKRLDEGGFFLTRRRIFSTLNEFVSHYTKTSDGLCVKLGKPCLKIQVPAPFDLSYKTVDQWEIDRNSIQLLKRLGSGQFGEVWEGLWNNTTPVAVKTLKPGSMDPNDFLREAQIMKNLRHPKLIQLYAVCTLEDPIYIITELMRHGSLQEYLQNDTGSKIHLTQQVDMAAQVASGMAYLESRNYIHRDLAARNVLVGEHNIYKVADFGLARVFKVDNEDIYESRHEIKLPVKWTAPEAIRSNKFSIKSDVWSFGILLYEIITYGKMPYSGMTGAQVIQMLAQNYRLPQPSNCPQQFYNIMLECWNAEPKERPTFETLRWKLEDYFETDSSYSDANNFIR
# HCK = HCK (Homo sapiens, UniProt P08631); experiment: biochemical; conditions: read-out: %Ctrl @ 2000nM
# HPK1 = HPK1 (Homo sapiens, UniProt Q92918); experiment: biochemical; conditions: read-out: %Ctrl @ 2000nM
# ICK = ICK (Homo sapiens, UniProt Q9UPZ9); experiment: biochemical; conditions: read-out: %Ctrl @ 2000nM
# IRAK1 = IRAK1 (Homo sapiens, UniProt P51617); experiment: biochemical; conditions: read-out: %Ctrl @ 2000nM
# Sequence of IRAK1 (P51617 whole entry): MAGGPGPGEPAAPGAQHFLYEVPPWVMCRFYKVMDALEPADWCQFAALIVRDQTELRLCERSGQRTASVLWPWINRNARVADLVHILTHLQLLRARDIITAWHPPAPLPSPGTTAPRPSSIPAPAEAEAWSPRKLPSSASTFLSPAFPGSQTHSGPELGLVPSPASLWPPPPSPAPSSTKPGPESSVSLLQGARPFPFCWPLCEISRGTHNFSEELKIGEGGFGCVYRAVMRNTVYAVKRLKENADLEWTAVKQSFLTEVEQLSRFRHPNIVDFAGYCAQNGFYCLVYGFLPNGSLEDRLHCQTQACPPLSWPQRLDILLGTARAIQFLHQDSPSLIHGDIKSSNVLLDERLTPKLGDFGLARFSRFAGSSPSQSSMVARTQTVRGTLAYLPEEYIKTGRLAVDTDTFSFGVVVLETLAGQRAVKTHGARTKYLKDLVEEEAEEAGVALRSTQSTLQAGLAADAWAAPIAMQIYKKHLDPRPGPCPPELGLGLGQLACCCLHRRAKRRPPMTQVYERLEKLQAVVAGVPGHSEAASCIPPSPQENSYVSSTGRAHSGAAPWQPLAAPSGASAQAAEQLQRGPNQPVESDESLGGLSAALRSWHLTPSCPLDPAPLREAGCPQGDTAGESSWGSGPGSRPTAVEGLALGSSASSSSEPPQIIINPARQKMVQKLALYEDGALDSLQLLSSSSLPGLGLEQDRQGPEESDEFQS
# IRAK3 = IRAK3 (Homo sapiens, UniProt Q9Y616); experiment: biochemical; conditions: read-out: %Ctrl @ 2000nM
# Sequence of IRAK3 (Q9Y616 whole entry): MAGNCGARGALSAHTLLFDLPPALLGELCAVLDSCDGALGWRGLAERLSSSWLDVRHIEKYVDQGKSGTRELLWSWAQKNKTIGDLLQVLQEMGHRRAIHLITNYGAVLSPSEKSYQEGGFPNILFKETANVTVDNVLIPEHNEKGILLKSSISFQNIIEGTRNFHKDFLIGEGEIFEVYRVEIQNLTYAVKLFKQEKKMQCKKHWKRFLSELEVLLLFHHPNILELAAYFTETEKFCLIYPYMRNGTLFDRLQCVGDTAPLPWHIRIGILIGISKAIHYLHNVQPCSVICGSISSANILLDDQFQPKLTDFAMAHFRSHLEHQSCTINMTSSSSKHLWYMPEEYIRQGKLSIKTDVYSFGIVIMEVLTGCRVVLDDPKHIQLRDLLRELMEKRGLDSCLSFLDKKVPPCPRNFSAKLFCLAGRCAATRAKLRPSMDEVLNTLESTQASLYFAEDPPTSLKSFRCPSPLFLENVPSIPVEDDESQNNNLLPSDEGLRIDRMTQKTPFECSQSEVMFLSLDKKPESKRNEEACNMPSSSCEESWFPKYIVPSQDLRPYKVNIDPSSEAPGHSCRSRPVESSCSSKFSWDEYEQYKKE
# ITK = ITK (Homo sapiens, UniProt Q08881); experiment: biochemical; conditions: read-out: %Ctrl @ 2000nM
# JNK3 = JNK3 (Homo sapiens, UniProt P53779); experiment: biochemical; conditions: read-out: %Ctrl @ 2000nM
# LCK = LCK (Homo sapiens, UniProt P06239); experiment: biochemical; conditions: read-out: %Ctrl @ 2000nM
# MLCK = MLCK (Homo sapiens, UniProt Q32MK0); experiment: biochemical; conditions: read-out: %Ctrl @ 2000nM
# MLK3 = MLK3 (Homo sapiens, UniProt Q16584); experiment: biochemical; conditions: read-out: %Ctrl @ 2000nM
# NEK10 = NEK10 (Homo sapiens, UniProt Q6ZWH5); experiment: biochemical; conditions: read-out: %Ctrl @ 2000nM
# Sequence of NEK10 (Q6ZWH5 whole entry): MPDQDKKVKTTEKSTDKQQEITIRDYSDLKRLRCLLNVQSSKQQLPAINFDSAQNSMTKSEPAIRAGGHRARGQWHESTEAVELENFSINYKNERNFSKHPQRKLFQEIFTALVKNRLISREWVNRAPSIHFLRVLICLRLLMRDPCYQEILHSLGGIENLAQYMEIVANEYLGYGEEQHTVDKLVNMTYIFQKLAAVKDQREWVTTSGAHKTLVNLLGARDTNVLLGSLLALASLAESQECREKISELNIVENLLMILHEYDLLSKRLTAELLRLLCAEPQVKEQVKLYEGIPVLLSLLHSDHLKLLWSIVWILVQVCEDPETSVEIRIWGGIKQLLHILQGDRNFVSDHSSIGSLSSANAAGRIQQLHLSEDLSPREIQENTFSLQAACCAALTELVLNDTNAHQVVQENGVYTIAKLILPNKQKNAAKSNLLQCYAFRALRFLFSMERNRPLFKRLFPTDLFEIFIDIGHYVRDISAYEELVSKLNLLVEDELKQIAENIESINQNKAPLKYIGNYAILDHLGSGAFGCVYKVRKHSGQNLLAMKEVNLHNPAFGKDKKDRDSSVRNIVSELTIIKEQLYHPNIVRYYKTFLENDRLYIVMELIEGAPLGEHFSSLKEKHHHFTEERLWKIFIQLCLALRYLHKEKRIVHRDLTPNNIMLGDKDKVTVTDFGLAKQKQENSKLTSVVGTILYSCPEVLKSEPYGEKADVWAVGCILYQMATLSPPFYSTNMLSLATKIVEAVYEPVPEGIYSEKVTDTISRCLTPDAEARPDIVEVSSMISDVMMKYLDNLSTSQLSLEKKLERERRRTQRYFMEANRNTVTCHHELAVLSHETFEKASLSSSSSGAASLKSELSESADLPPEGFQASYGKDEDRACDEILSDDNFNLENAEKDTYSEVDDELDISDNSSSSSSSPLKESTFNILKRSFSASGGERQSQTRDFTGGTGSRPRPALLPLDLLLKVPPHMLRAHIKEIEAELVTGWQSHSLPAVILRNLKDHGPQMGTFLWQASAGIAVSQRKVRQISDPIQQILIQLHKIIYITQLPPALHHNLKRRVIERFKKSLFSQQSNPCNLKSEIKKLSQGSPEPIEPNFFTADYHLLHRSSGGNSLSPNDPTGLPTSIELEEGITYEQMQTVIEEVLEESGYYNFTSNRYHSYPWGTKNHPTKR
# p38-gamma = p38-gamma (Homo sapiens, UniProt P53778); experiment: biochemical; conditions: read-out: %Ctrl @ 2000nM
# PAK1 = PAK1 (Homo sapiens, UniProt Q13153); experiment: biochemical; conditions: read-out: %Ctrl @ 2000nM
# PAK6 = PAK6 (Homo sapiens, UniProt Q9NQU5); experiment: biochemical; conditions: read-out: %Ctrl @ 2000nM
# Sequence of PAK6 (Q9NQU5 whole entry): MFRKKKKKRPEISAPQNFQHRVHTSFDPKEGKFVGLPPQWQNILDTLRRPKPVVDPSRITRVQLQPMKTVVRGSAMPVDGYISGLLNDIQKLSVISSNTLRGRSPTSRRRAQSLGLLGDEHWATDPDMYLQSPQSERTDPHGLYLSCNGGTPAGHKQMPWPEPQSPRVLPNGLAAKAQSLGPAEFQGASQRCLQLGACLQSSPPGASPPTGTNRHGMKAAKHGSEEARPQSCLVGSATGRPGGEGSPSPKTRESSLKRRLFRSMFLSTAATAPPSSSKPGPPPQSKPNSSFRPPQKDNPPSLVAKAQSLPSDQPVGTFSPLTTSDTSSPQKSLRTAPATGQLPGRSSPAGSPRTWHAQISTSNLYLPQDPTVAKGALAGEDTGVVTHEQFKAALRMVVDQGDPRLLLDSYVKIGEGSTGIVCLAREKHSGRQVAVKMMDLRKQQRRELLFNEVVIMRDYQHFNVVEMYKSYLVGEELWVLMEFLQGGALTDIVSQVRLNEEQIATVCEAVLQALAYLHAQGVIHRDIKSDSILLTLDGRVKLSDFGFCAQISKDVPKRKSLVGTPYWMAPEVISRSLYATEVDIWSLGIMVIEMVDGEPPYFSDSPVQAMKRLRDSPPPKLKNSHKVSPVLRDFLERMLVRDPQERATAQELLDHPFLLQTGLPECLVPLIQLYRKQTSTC
# PIK3CD = PIK3CD (Homo sapiens, UniProt O00329); experiment: biochemical; conditions: read-out: %Ctrl @ 2000nM
# PKMYT1 = PKMYT1 (Homo sapiens, UniProt Q99640); experiment: biochemical; conditions: read-out: %Ctrl @ 2000nM
# PRKD1 = PRKD1 (Homo sapiens, UniProt Q15139); experiment: biochemical; conditions: read-out: %Ctrl @ 2000nM
# RET = RET (Homo sapiens, UniProt P07949); experiment: biochemical; conditions: read-out: %Ctrl @ 2000nM
# [4] = molecular target: RSK1(Kin.Dom.1-N-terminal) (Homo sapiens, UniProt Q15418); experiment: biochemical; conditions: read-out: %Ctrl @ 2000nM
# SRPK1 = SRPK1 (Homo sapiens, UniProt Q96SB4); experiment: biochemical; conditions: read-out: %Ctrl @ 2000nM
# STK33 = STK33 (Homo sapiens, UniProt Q9BYT3); experiment: biochemical; conditions: read-out: %Ctrl @ 2000nM
# TNIK = TNIK (Homo sapiens, UniProt Q9UKE5); experiment: biochemical; conditions: read-out: %Ctrl @ 2000nM
# ULK2 = ULK2 (Homo sapiens, UniProt Q8IYT8); experiment: biochemical; conditions: read-out: %Ctrl @ 2000nM
# WNK3 = WNK3 (Homo sapiens, UniProt Q9BYP7); experiment: biochemical; conditions: read-out: %Ctrl @ 2000nM
# ZAP70 = ZAP70 (Homo sapiens, UniProt P43403); experiment: biochemical; conditions: read-out: %Ctrl @ 2000nM
smiles,measurement,setting,value
"CC(C)COC(=O)c1[nH]c2ccc(F)cc2c1-c1cn(CC2CCN(CCNS(=O)(=O)c3ccc(CC(C)C)cc3)CC2)nn1 [AB668, isobutyl 5-fluoro-3-(1-((1-(2-((4-isobutylphenyl)sulfonamido)ethyl)piperidin-4-yl)methyl)-1H-1,2,3-triazol-4-yl)-1H-indole-2-carboxylate]",pAKTS129 / AKT band quantification,[1],0.8 and 0.5
same,remaining activity at 2 µM,[2],88%
same,remaining activity at 2 µM,[3],86%
same,remaining activity at 2 µM,ACVR1B,75%
same,remaining activity at 2 µM,ALK(L1196M),85%
same,remaining activity at 2 µM,ASK2,75%
same,remaining activity at 2 µM,BMPR1A,77%
same,remaining activity at 2 µM,CDK8,81%
same,remaining activity at 2 µM,CDK9,93%
same,remaining activity at 2 µM,CIT,88%
same,remaining activity at 2 µM,CLK3,79%
same,remaining activity at 2 µM,CSNK1G3,67%
same,remaining activity at 2 µM,DCAMKL1,71%
same,remaining activity at 2 µM,EGFR(L861Q),79%
same,remaining activity at 2 µM,EPHA2,92%
same,remaining activity at 2 µM,EPHA3,86%
same,remaining activity at 2 µM,FAK,91%
same,remaining activity at 2 µM,FRK,70%
same,remaining activity at 2 µM,HCK,96%
same,remaining activity at 2 µM,HPK1,92%
same,remaining activity at 2 µM,ICK,100%
same,remaining activity at 2 µM,IRAK1,98%
same,remaining activity at 2 µM,IRAK3,86%
same,remaining activity at 2 µM,ITK,93%
same,remaining activity at 2 µM,JNK3,92%
same,remaining activity at 2 µM,LCK,99%
same,remaining activity at 2 µM,MLCK,100%
same,remaining activity at 2 µM,MLK3,99%
same,remaining activity at 2 µM,NEK10,80%
same,remaining activity at 2 µM,p38-gamma,74%
same,remaining activity at 2 µM,PAK1,99%
same,remaining activity at 2 µM,PAK6,90%
same,remaining activity at 2 µM,PIK3CD,91%
same,remaining activity at 2 µM,PKMYT1,70%
same,remaining activity at 2 µM,PRKD1,100%
same,remaining activity at 2 µM,RET,87%
same,remaining activity at 2 µM,[4],100%
same,remaining activity at 2 µM,SRPK1,88%
same,remaining activity at 2 µM,STK33,67%
same,remaining activity at 2 µM,TNIK,88%
same,remaining activity at 2 µM,ULK2,100%
same,remaining activity at 2 µM,WNK3,98%
same,remaining activity at 2 µM,ZAP70,76%
